Test results: patent US10882860B2, “Treatment of osteoarthritis” (Samumed, LLC, priority 2015, dated 2021)
Like-named read-outs stand apart in the source and are kept apart here.

Tests used:
[1] = test system: Wnt genes TCF7, c-Myc, Axin-2, Ascl 2, and SP5; test: In vitro Wnt pathway inhibition, qRT-PCR in human MSCs; type: cell-based; conditions: 30 nM; 48 hours; fold change vs DMSO; FIG. 15
Protocol: Human mesenchymal stem cells (MSCs) were plated in 6-well plates in chondrogenic induction medium (Lonza; DMEM, dexamethasone, ascorbate, insulin-transferrin-selenium [ITS supplement], gentamycin-amphotericin [GA-1000], sodium pyruvate, proline and L-glutamine) and treated with the compound of Formula (I) (30 nM) in DMSO or TGF-β3 (20 μg/mL) as a positive control. Cells were incubated at 37° C., 5% CO2 for 48 hours. Cells were pelleted and washed, and total RNA was isolated and purified using RNeasy Plus Mini Kit (Qiagen). cDNA was synthesized from 1 μg of total RNA using QuantiTect Reverse Transcription kit (Qiagen). qRT-PCR was performed with QuantiTect SYBR Green PCR Kit (Qiagen) and gene-specific primers, using CFX384 thermal cycler (Biorad). Transcripts were quantitated by comparative Ct method and normalized to endogenous controls, β-actin and GAPDH. Fold changes were normalized to DMSO treated cells.

Human MSCs = test: Chondrogenesis induction, Rhodamine B and Nile Red staining; type: cell-based
Protocol: Human MSCs were plated in 96-well plates in chondrogenic induction medium (Lonza; DMEM, dexamethasone, ascorbate, insulin-transferrin-selenium [ITS supplement], gentamycin-amphotericin [GA-1000], sodium pyruvate, proline and L-glutamine) and treated with the compound of Formula (I) in DMSO or TGFβ3 (20 μg/mL) as a positive control. Cells were incubated at 37° C., 5% CO2 for either 7 or 21 days, with media changes every 5 days. The cells were fixed using 4% formaldehyde (Electron Microscopy Sciences), and stained with 2 μg/mL Rhodamine B (Sigma-Aldrich) and 20 μM Nile Red (Sigma-Aldrich) (Johnson et al. (2012) Science 336(6082):717-721). The nodules were imaged (25 images per well for 96 well plates at 10× magnification) by excitation at 531 nm and emission at 625 nm and quantified using the Celllnsight CX5 (Thermo Scientific). The number of nodules in each well was normalized to the average of 6 DMSO treated wells on the same plate using Excel (Microsoft Inc.). The normalized averages (fold change over DMSO) of 6 replicate wells for each compound concentration were calculated.

[2] = Rat pharmacokinetics after IA injection (plasma, knee joint); type: in vivo, Sprague Dawley rats; conditions: for concentration at 30 day / concentration at 90 day / concentration at 180 day: Sprague Dawley; for concentration at 30 day / concentration at 90 day / concentration at 180 day / Formula (I) concentration, Bone / Formula (I) concentration, Cartilage / Formula (I) concentration, Plasma: rats, single IA; for Formula (I) concentration, Plasma: QL = 5 ng/mL
Protocol: In rats and dogs, the pharmacokinetic profile, safety profile, tissue distribution and cartilage regeneration following a single intra-articular (IA) injection of the compound of Formula (I) in the plasma and the knee joint (cartilage and bone) was determined. The compound of Formula (I) (Form 1) was formulated as a suspension composition in 0.5% CMC/0.05% Polysorbate 80 in PBS.
The pharmacokinetics of the compound of Formula (I) in rats was studied. Three Sprague Dawley rats were each injected with a single intra-articular (IA) injection (one IA injection per knee) of a suspension composition of the compound of Formula (I) (Form 1) at 0.3, 1, 3 and 9 μg/knee. Plasma was collected beginning at 15 minutes post-dose on Day 1 and the knee joint was collected at Days 30, 90, and 180 post-IA administration. The bone and cartilage tissues from the knee joint were segregated and concentrations analyzed. The compound was retained in the knee joint above the target concentration level (˜30 nM, the intended clinical therapeutic dose) for greater than 180 days and was undetectable in the plasma at all time points.

[3] = test system: rat models of osteoarthritis (ACLT and pMMx); test: Efficacy of suspension compositions compared to a solution composition in rat OA model; type: in vivo, rats
Protocol: The efficacy of suspension compositions of the compound of Formula (I) (Form 1) as compared to a solution composition of the compound of Formula (I) in rat models of osteoarthritis (OA) was determined using a solution (final IA dose of 3 μg solution) and 0.1 μg and 0.3 μg suspension compositions of the compound of Formula (I) (Form 1).
The rats were treated with final dose levels of either a 0.1 μg or 0.3 μg suspension or a 3 μg solution of the compound of Formula (I). Histology score of cartilage integrity in the knee was the readout.

CC(C)CC(=O)Nc1cncc(-c2ccc3[nH]nc(-c4nc5c(-c6cccc(F)c6)cncc5[nH]4)c3c2)c1 [compound of Formula (I)]
expression of Wnt genes TCF7, c-Myc, Axin-2, Ascl 2, and SP5 [1]: downregulation
chondrocyte colonies/well (Human MSCs; 1.88 nM to 30 nM, FIG. 17): dose-dependent chondrogenesis
chondrogenesis (Nile Red and Rhodamine B staining) (Human MSCs; human MSCs, 7 or 21 days, fold change over DMSO, FIGS. 16A, 16B): dose dependent increase in chondrogenesis
concentration at 30 day ([2]; rat, bone, other: intra-articular injection, 1 μg/knee, Day 30, read-out: Formula (I) concentration, Bone): 196 ng/g
concentration at 90 day ([2]; rat, bone, other: intra-articular injection, 1 μg/knee, Day 90, read-out: Formula (I) concentration, Bone): 44.4 ng/g
concentration at 180 day ([2]; rat, bone, other: intra-articular injection, 1 μg/knee, Day 180, read-out: Formula (I) concentration, Bone): 46.4 ng/g
concentration at 30 day ([2]; rat, bone, other: intra-articular injection, 3 μg/knee, Day 30, read-out: Formula (I) concentration, Bone): 738 ng/g
concentration at 90 day ([2]; rat, bone, other: intra-articular injection, 3 μg/knee, Day 90, read-out: Formula (I) concentration, Bone): 166 ng/g
concentration at 180 day ([2]; rat, bone, other: intra-articular injection, 3 μg/knee, Day 180, read-out: Formula (I) concentration, Bone): 15 ng/g
concentration at 30 day ([2]; rat, bone, other: intra-articular injection, 9 μg/knee, Day 30, read-out: Formula (I) concentration, Bone): 3290 ng/g
concentration at 180 day ([2]; rat, bone, other: intra-articular injection, 9 μg/knee, Day 180, read-out: Formula (I) concentration, Bone): 67 ng/g
concentration at 30 day ([2]; rat, bone, other: intra-articular, 0.3 μg/knee, Day 30, read-out: Formula (I) concentration, Bone): 25.8 ng/g
concentration at 90 day ([2]; rat, bone, other: intra-articular, 0.3 μg/knee, Day 90, read-out: Formula (I) concentration, Bone): 6.56 ng/g
concentration at 180 day ([2]; rat, bone, other: intra-articular, 0.3 μg/knee, Day 180, read-out: Formula (I) concentration, Bone): 19 ng/g
concentration at 30 day ([2]; rat, cartilage, other: intra-articular injection, 0.3 μg/knee, Day 30, read-out: Formula (I) concentration, Cartilage): 263 ng/g
concentration at 90 day ([2]; rat, cartilage, other: intra-articular injection, 0.3 μg/knee, Day 90, read-out: Formula (I) concentration, Cartilage): 78 ng/g
concentration at 180 day ([2]; rat, cartilage, other: intra-articular injection, 0.3 μg/knee, Day 180, read-out: Formula (I) concentration, Cartilage): 69.6 ng/g
concentration at 30 day ([2]; rat, cartilage, other: intra-articular injection, 3 μg/knee, Day 30, read-out: Formula (I) concentration, Cartilage): 2570 ng/g
concentration at 90 day ([2]; rat, cartilage, other: intra-articular injection, 3 μg/knee, Day 90, read-out: Formula (I) concentration, Cartilage): 645 ng/g
concentration at 180 day ([2]; rat, cartilage, other: intra-articular injection, 3 μg/knee, Day 180, read-out: Formula (I) concentration, Cartilage): 717 ng/g
concentration at 30 day ([2]; rat, cartilage, other: intra-articular injection, 9 μg/knee, Day 30, read-out: Formula (I) concentration, Cartilage): 3560 ng/g
concentration at 180 day ([2]; rat, cartilage, other: intra-articular injection, 9 μg/knee, Day 180, read-out: Formula (I) concentration, Cartilage): 224 ng/g
concentration at 30 day ([2]; rat, cartilage, other: intra-articular, 1 μg/knee, Day 30, read-out: Formula (I) concentration, Cartilage): 39 ng/g
concentration at 90 day ([2]; rat, cartilage, other: intra-articular, 1 μg/knee, Day 90, read-out: Formula (I) concentration, Cartilage): 243 ng/g
concentration at 180 day ([2]; rat, cartilage, other: intra-articular, 1 μg/knee, Day 180, read-out: Formula (I) concentration, Cartilage): 201 ng/g
plasma level ([2]; rat, all time points): undetectable
time retained in the knee joint above the target concentration level (˜30 nM) ([2]; rat, single IA 0.3, 1, 3 and 9 μg/knee): greater than 180 days
Formula (I) concentration, Bone ([2]; 0.3 μg/knee, Day 30): [51 nM]
Formula (I) concentration, Cartilage ([2]; 0.3 μg/knee, Day 30): [521 nM]
Formula (I) concentration, Plasma ([2]; 0.3 μg/knee, Day 30): BQL
Formula (I) concentration, Bone ([2]; 0.3 μg/knee, Day 90): [13 nM]
Formula (I) concentration, Cartilage ([2]; 0.3 μg/knee, Day 90): [154 nM]
Formula (I) concentration, Plasma ([2]; 0.3 μg/knee, Day 90): BQL
Formula (I) concentration, Bone ([2]; 0.3 μg/knee, Day 180): [38 nM]
Formula (I) concentration, Cartilage ([2]; 0.3 μg/knee, Day 180): [138 nM]
Formula (I) concentration, Plasma ([2]; 0.3 μg/knee, Day 180): BQL
Formula (I) concentration, Bone ([2]; 1 μg/knee, Day 30): [388 nM]
Formula (I) concentration, Cartilage ([2]; 1 μg/knee, Day 30): [774 nM]
Formula (I) concentration, Plasma ([2]; 1 μg/knee, Day 30): BQL
Formula (I) concentration, Bone ([2]; 1 μg/knee, Day 90): [88 nM]
Formula (I) concentration, Cartilage ([2]; 1 μg/knee, Day 90): [481 nM]
Formula (I) concentration, Plasma ([2]; 1 μg/knee, Day 90): BQL
Formula (I) concentration, Bone ([2]; 1 μg/knee, Day 180): [92 nM]
Formula (I) concentration, Cartilage ([2]; 1 μg/knee, Day 180): [398 nM]
Formula (I) concentration, Plasma ([2]; 1 μg/knee, Day 180): BQL
Formula (I) concentration, Bone ([2]; 3 μg/knee, Day 30): [1461 nM]
Formula (I) concentration, Cartilage ([2]; 3 μg/knee, Day 30): [5097 nM]
Formula (I) concentration, Plasma ([2]; 3 μg/knee, Day 30): BQL
Formula (I) concentration, Bone ([2]; 3 μg/knee, Day 90): [329 nM]
Formula (I) concentration, Cartilage ([2]; 3 μg/knee, Day 90): [1277 nM]
Formula (I) concentration, Plasma ([2]; 3 μg/knee, Day 90): BQL
Formula (I) concentration, Bone ([2]; 3 μg/knee, Day 180): [313 nM]
Formula (I) concentration, Cartilage ([2]; 3 μg/knee, Day 180): [1420 nM]
Formula (I) concentration, Plasma ([2]; 3 μg/knee, Day 180): BQL
Formula (I) concentration, Bone ([2]; 9 μg/knee, Day 30): [6520 nM]
Formula (I) concentration, Cartilage ([2]; 9 μg/knee, Day 30): [7055 nM]
Formula (I) concentration, Plasma ([2]; 9 μg/knee, Day 30): BQL
Formula (I) concentration, Plasma ([2]; 9 μg/knee, Day 90): BQL
Formula (I) concentration, Bone ([2]; 9 μg/knee, Day 180): [1335 nM]
Formula (I) concentration, Cartilage ([2]; 9 μg/knee, Day 180): [4437 nM]
Formula (I) concentration, Plasma ([2]; 9 μg/knee, Day 180): BQL
histology score of cartilage integrity in the knee (vs. vehicle) ([3]; 0.1 μg suspension, 3 months, did not reach statistical significance): beneficial effect
histology score of cartilage integrity in the knee (vs. vehicle) ([3]; 0.3 μg suspension, 3 months): significant difference
histology score of cartilage integrity in the knee (vs. vehicle) ([3]; 3 μg solution, 2 months, did not reach statistical significance): beneficial effect
